Data as given in BigSolDB 2.1.

O=C(Nc1ccc(F)cc1F)c1cccnc1Oc1cccc(C(F)(F)F)c1
solubility (mole fraction)
Settings	278.15 K	283.15 K	288.15 K	293.15 K	298.15 K	303.15 K	308.15 K	313.15 K	318.15 K	323.15 K
in acetone	0.00903	0.0107	0.0127	0.0152	0.018	0.021	0.0247	0.029	0.0339	0.0408
in cyclohexane	–	0.000103	0.000162	0.000229	0.000334	0.000458	0.000613	0.000806	0.00112	0.00147
in ethanol	0.000251	0.000332	0.00043	0.000545	0.000681	0.000857	0.00107	0.00139	0.00173	0.00214
in isopropanol	4.65e-05	7.36e-05	0.000116	0.000183	0.000282	0.000431	0.000665	0.001	0.00152	0.0022
in methanol	0.000235	0.000293	0.000377	0.000474	0.0006	0.00075	0.000938	0.00117	0.00147	0.00187
in toluene	0.00513	0.00638	0.00779	0.00954	0.0116	0.0142	0.0177	0.0215	0.0252	0.0303
